Legend:
Format in all cases: cell-based, human
[1] = system: FPR2/ALX mRNA; test: FPR2/ALX mRNA expression by real time PCR in MDA-MB231 cells
[2] = system: FPR2/ALX protein; test: FPR2/ALX protein expression by flow cytometry in MDA-MB231 cells; details: 10 μM 5-aza-dC, 72 h, Δ MFI vs untreated cells
[3] = system: FPR2/ALX promoter; test: Luciferase reporter gene assay of FPR2/ALX promoter constructs P-1500 and P-346 in MDA-MB231 cells; details: MDA-MB231 cells transfected 24 h, then exposed 24 h; LXA4 10 nM, dexametasone 1 μM, IFN-γ 5-100 nM, LPS 500 nM; vs vehicle
Protocol: Left panel. MDA-MB231 cells were transfected with P-1500 or P-346. Twenty four hours post-transfection, cells were exposed to ethanol vehicle or 10 nM LXA4 for additional 24 h. Bars depict mean±S.D. of n=4 carried out with duplicates. *, P=0.018; **, P=0.0076 vs vehicle-treated cells. Right panel. MDA-MB231 cells were exposed to LXA4 (10 nM) for the indicated time. FPR2/ALX mRNA was quantitated by real-time PCR. Bars show mean±S.D. of n=3. *, P=0.05.
Having localized the TSS, a 1500 bp fragment of human genomic DNA (−1449/+51 from the TSS) was amplified by PCR, cloned into the promoterless pGL3 vector containing the luciferase reporter gene. For this purpose, Genomic DNA was extracted from the THP1 cells using the Wizard Genomic DNA Purification Kit (Promega, Milan, Italy). Two primers, (For 1500 bp e Rev 1500 bp, Table 1) were designed on the basis of genomic DNA sequence of 5′-flanking region of the FPR2/ALX gene to amplify a section of DNA starting −1449 bp upstream of the identified transcription start site (+1). In addition to the template (100 ng of genomic DNA) and primers For 1500 bp and Rev 1500 bp (100 ng), the reaction mixture contained 0.2 mM dNTPs, Pfu DNA polymerase buffer and 0.05 units of Jumpstart Taq DNA polymerase (Sigma-Aldrich), PCR consisted of 35 cycles of amplification (30 seconds at 94° C., 30 s at 52° C., and 120 seconds at 72° C.). PCR products were recovered from low melting agarose gel and used as template in PCR reactions using primers For 1500 and Rev 1500, added of Kpn I and Xho I restriction sites, respectively (Table 1). PCR products were resolved by 1.5% agarose gel elecrophoresis, purified and ligated into the pGL3-basic reporter vector, which was previously digested with Kpn I and Xho I restriction endonuclease. […] The promoter activity of the construct was analyzed by transfection into MCF7 and MDA-MB231 cells. […] A slightly higher activity was detected in MDA-MB231 cells (18 fold over empty vector) compared to MCF7 cells (14 fold over empty vector). […]

Row | Compound | increase in FPR2/ALX mRNA expression ([1]; MDA-MB231 cells, 10 μM 5-aza-dC, 72 h, vs untreated cells) [fold] | increase in FPR2/ALX protein expression [2] [fold] | FPR2/ALX mRNA levels ([1]; MDA-MB231 cells exposed to LXA4 10 nM, real-time PCR) | luciferase activity of P-1500 and P-346 [3]
1 | Nc1ncn([C@H]2C[C@H](O)[C@@H](CO)O2)c(=O)n1 [5-aza-dC, 5-aza-2′-deoxycytidine] | ~10 | ~3 | – | –
2 | CCCCCC(O)/C=C/C=C\C=C\C=C\C(O)C(O)CCCC(=O)O (stereo not drawn) [LXA4, 5,6,155-trihydroxy-7,9,11,13-trans-1′-cis-eicosatetraenoic acid] | – | – | enhanced | significantly enhanced
3 | C[C@@H]1C[C@H]2[C@@H]3CCC4=CC(=O)C=C[C@]4(C)[C@@]3(F)[C@@H](O)C[C@]2(C)[C@@]1(O)C(=O)CO [dexametasone] | – | – | – | did not give appreciable changes
4 | IFN-γ: gamma interferon, cytokine | – | – | – | did not give appreciable changes
